Measurements published in article PMC2193921 (The Journal of Experimental Medicine, 2002).

System: highly tumor reactive A2/Melan-A multimer+ CD8+ T cell clones
Details: 4 h

IC50: ~1 nM
Compound: CC[C@H](C)[C@H](NC(=O)CNC(=O)[C@H](C)NC(=O)[C@H](C)N)C(=O)NCC(=O)N[C@H](C(=O)N[C@@H](CC(C)C)C(=O)N[C@H](C(=O)N[C@H](C(=O)O)C(C)C)[C@@H](C)O)[C@@H](C)CC [Melan-A 27–35]
